≈ marks a conversion by molar mass, not a printed value. Calls of active or inactive are those of the source. The calls are words filed in the database; no cut-off is given here. *1 amine or outer side, *2 acyl side, *3 side chain or, on linkers, in order; H or OH if unused. Where a SMILES comes first, the peptide text is derived from it. Bridges are numbered along the chain shown (N, C = ends). [ ]: non-standard residue; d: D form. X1 = O=C([C@@H](N[*:1])[C@H](O)C[*:3])[*:2]; Abu(4-yl) = O=C([C@H](CC[*:3])N[*:1])[*:2]

Consider three compounds from ChEMBL document CHEMBL6153065, “Heterologous Expression and Characterization of Estercin A, a Class II Lanthipeptide Derived from Clostridium estertheticum CF016, with Antimicrobial Activity against Clinically Relevant Pathogens” (2025).

Assay type in all cases: functional
In one assay the test system is Bacillus cereus. Briefly: Antibacterial activity against Bacillus cereus ATCC14579 assessed as inhibition of bacterial growth at 1 mg/ml incubated for 16 hrs by agar well diffusion assay relative to control. Also on record: scale not given: the % may be the effect or the level left.
The next assay deals with Staphylococcus aureus. Briefly: Antibacterial activity against Staphylococcus aureus LMG15975 assessed as inhibition of bacterial growth at 1 mg/ml incubated for 16 hrs by agar well diffusion assay relative to control. Details: scale not given: the % may be the effect or the level left. On the technique in general: A growth-free zone around the sample is the usual read-out of agar diffusion tests.

In the next assay the test system is Lactococcus lactis. Briefly: Antibacterial activity against Lactococcus lactis MG1363 assessed as inhibition of bacterial growth at 1 mg/ml incubated for 16 hrs by agar well diffusion assay relative to control. Also on record: scale not given: the % may be the effect or the level left.
Another assay deals with Clostridium perfringens. The experiment in a line: Antibacterial activity against Clostridium perfringens CECT376 assessed as bacterial growth inhibition incubated for 18 hrs by Mueller-Hinton broth based doubling dilution method.

Turning to `C=C1NC(=O)[C@H](C(C)C)NC(=O)[C@@H]2CSC[C@@H](C(=O)N[C@@H](CCCCN)C(=O)O)NC(=O)[C@H](CSC[C@@H]3NC(=O)[C@H](Cc4ccccc4)NC(=O)[C@@H](NC(=O)[C@H](CC(N)=O)NC(=O)[C@@H](NC(=O)[C@@H](NC(=O)CNC(=O)CNC(=O)CN)C(C)C)[C@@H](C)CC)CSC[C@H](NC(=O)[C@H](CCC(=O)O)NC(=O)[C@H](Cc4c[nH]cn4)NC3=O)C(=O)N[C@@H](Cc3ccc(O)cc3)C(=O)N[C@@H](Cc3ccc(O)cc3)C(=O)N[C@@H](CC(N)=O)C(=O)N2)NC(=O)CNC(=O)CNC(=O)[C@H](Cc2c[nH]c3ccccc23)NC(=O)[C@H](CO)NC(=O)[C@H](C)NC(=O)[C@@H]2CCCN2C1=O`, the Activity in the assay with Bacillus cereus, with Staphylococcus aureus and in the assay with Lactococcus lactis was 100% throughout.

As for `C=C1NC(=O)[C@H](C(C)C)NC(=O)[C@@H]2CSC[C@@H](C(=O)N[C@@H](CCCCN)C(=O)O)NC(=O)[C@H](CSC[C@H]3NC(=O)[C@H](Cc4ccccc4)NC(=O)[C@@H](NC(=O)[C@@H](NC(=O)[C@@H](NC(=O)[C@@H](NC(=O)CNC(=O)CNC(=O)CN)C(C)C)[C@@H](C)CC)[C@@H](C)O)CSC[C@@H](NC(=O)[C@H](CCC(=O)O)NC(=O)[C@H](Cc4c[nH]cn4)NC3=O)C(=O)N[C@@H](Cc3ccc(O)cc3)C(=O)N[C@@H](Cc3ccc(O)cc3)C(=O)N[C@@H](CC(N)=O)C(=O)N2)NC(=O)CNC(=O)[C@H](CO)NC(=O)[C@H](C)NC(=O)[C@@H]2CCCN2C1=O`, the outcome in the assay with Bacillus cereus, in the assay on Staphylococcus aureus and in the assay with Lactococcus lactis was inactive.

With `CC[C@H](C)[C@H](NC(=O)[C@@H](NC(=O)[C@H](CCCCN)NC(=O)[C@H](CC(C)C)NC(=O)[C@@H](NC(=O)CNC(=O)[C@H](CC(N)=O)NC(=O)CN)C(C)C)[C@@H](C)O)C(=O)N[C@H]1CCSC[C@@H]2NC(=O)[C@@H](NC(=O)[C@H](Cc3ccccc3)NC(=O)[C@H](CC(C)C)NC(=O)[C@H](Cc3ccccc3)NC(=O)[C@H](CCC(N)=O)NC(=O)[C@H](Cc3c[nH]c4ccccc34)NC(=O)[C@H]([C@@H](C)O)NC(=O)[C@H](CC(N)=O)NC(=O)[C@H](CCSC)NC(=O)[C@H](CC(N)=O)NC(=O)[C@H](CS)NC(=O)[C@H](CCC(=O)O)NC(=O)[C@H](Cc3c[nH]cn3)NC1=O)[C@H](O)CSC[C@@H](C(=O)O)NC2=O` (H-GNGVLKTI[Abu(4-yl)]HECNMNTWQFLF[X1]CC-OH; thioether 9-23, 22-24), the MIC (in general, the least concentration at which growth counts as inhibited) in the assay on Clostridium perfringens was 75 mg/L (≈ 27.4 µM).
